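Where inhibition never reached the appropriate level, the endpoint shown equals the highest concentration tested. Otherwise, values were interpolated linearly from a five-concentration, 48-hour dose response in 96-well plates. Here, GI50 denotes the concentration required for 50% inhibition of growth. Definition used: TGI = concentration required for complete inhibition of growth.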
Experiments:
Assay in all cases: NCI anticancer screen, dose series, 48 h
786-0 renal = system: 786-0 renal
A498 renal = system: A498 renal
A549 NSCLC = system: A549 NSCLC
ACHN renal = system: ACHN renal
BT-549 breast = system: BT-549 breast
CAKI-1 renal = system: CAKI-1 renal
CCRF-CEM leukemia = system: CCRF-CEM leukemia
COLO 205 colon = system: COLO 205 colon
DU-145 prostate = system: DU-145 prostate
HCC-2998 colon = system: HCC-2998 colon
HCT-116 colon = system: HCT-116 colon
HCT-15 colon = system: HCT-15 colon
HL-60(TB) leukemia = system: HL-60(TB) leukemia
HOP-62 NSCLC = system: HOP-62 NSCLC
HOP-92 NSCLC = system: HOP-92 NSCLC
HS 578T breast = system: HS 578T breast
HT29 colon = system: HT29 colon
IGROV1 ovarian = system: IGROV1 ovarian
K-562 leukemia = system: K-562 leukemia
KM12 colon = system: KM12 colon
LOX IMVI melanoma = system: LOX IMVI melanoma
M14 melanoma = system: M14 melanoma
MALME-3M melanoma = system: MALME-3M melanoma
MCF7 breast = system: MCF7 breast
MDA-MB-231 breast = system: MDA-MB-231 breast
MDA-MB-435 = system: MDA-MB-435
MOLT-4 leukemia = system: MOLT-4 leukemia
NCI-H226 lung = system: NCI-H226 lung
NCI-H23 lung = system: NCI-H23 lung
NCI-H460 lung = system: NCI-H460 lung
NCI-H522 lung = system: NCI-H522 lung
NCI/ADR-RES ovarian = system: NCI/ADR-RES ovarian
OVCAR-3 ovarian = system: OVCAR-3 ovarian
OVCAR-4 ovarian = system: OVCAR-4 ovarian
OVCAR-5 ovarian = system: OVCAR-5 ovarian
OVCAR-8 ovarian = system: OVCAR-8 ovarian
PC-3 prostate = system: PC-3 prostate
RPMI-8226 leukemia = system: RPMI-8226 leukemia
RXF 393 renal = system: RXF 393 renal
SF-268 CNS = system: SF-268 CNS
SF-295 CNS = system: SF-295 CNS
SF-539 CNS = system: SF-539 CNS
SK-MEL-2 melanoma = system: SK-MEL-2 melanoma
SK-MEL-28 melanoma = system: SK-MEL-28 melanoma
SK-MEL-5 melanoma = system: SK-MEL-5 melanoma
SK-OV-3 ovarian = system: SK-OV-3 ovarian
SN12C renal = system: SN12C renal
SNB-19 CNS = system: SNB-19 CNS
SNB-75 CNS = system: SNB-75 CNS
SR leukemia = system: SR leukemia
SW-620 colon = system: SW-620 colon
T-47D breast = system: T-47D breast
TK-10 renal = system: TK-10 renal
U251 CNS = system: U251 CNS
UACC-257 melanoma = system: UACC-257 melanoma
UACC-62 melanoma = system: UACC-62 melanoma
UO-31 renal = system: UO-31 renal

Work on `CC(=O)Nc1ccc2c(c1)C(c1ccccc1Cl)=Nc1c(n[nH]c1C)N2` yielded a GI50 (786-0 renal) of 7.79 µM, a TGI (786-0 renal) greater than 25 µM and a GI50 (A498 renal) of 0.746 µM. It also gave a TGI (A498 renal) of 6.99 µM, a GI50 (A549 NSCLC) of 4.46 µM and a TGI (A549 NSCLC) greater than 25 µM. For the same compound, the GI50 (ACHN renal) was 6.19 µM, the TGI (ACHN renal) was greater than 25 µM and the GI50 (BT-549 breast) was 6.58 µM. The TGI (BT-549 breast) was greater than 25 µM, the GI50 (CAKI-1 renal) was 2.84 µM and the TGI (CAKI-1 renal) was greater than 22.5 µM. The GI50 (CCRF-CEM leukemia) was 12.2 µM, the TGI (CCRF-CEM leukemia) was greater than 25 µM and the GI50 (COLO 205 colon) was 1.53 µM. For the same compound, the TGI (COLO 205 colon) was greater than 22 µM, the GI50 (DU-145 prostate) was greater than 22.8 µM and the TGI (DU-145 prostate) was greater than 25 µM. For the same compound, the GI50 (HCC-2998 colon) was 16.7 µM, the TGI (HCC-2998 colon) was greater than 25 µM and the GI50 (HCT-116 colon) was 2.49 µM. For the same compound, the TGI (HCT-116 colon) was greater than 25 µM, the GI50 (HCT-15 colon) was 10.8 µM and the TGI (HCT-15 colon) was greater than 25 µM. It also gave a GI50 (HL-60(TB) leukemia) of 14.8 µM, a TGI (HL-60(TB) leukemia) greater than 25 µM and a GI50 (HOP-62 NSCLC) of 5.74 µM. The TGI (HOP-62 NSCLC) was greater than 25 µM, the GI50 (HOP-92 NSCLC) was 1.41 µM and the TGI (HOP-92 NSCLC) was 16.4 µM. For the same compound, the GI50 (HS 578T breast) was 0.928 µM, the TGI (HS 578T breast) was greater than 11.7 µM and the GI50 (HT29 colon) was 4.45 µM. The TGI (HT29 colon) was greater than 25 µM, the GI50 (IGROV1 ovarian) was 5.66 µM and the TGI (IGROV1 ovarian) was greater than 24 µM. For the same compound, the GI50 (K-562 leukemia) was 17.3 µM, the TGI (K-562 leukemia) was greater than 25 µM and the GI50 (KM12 colon) was 0.253 µM. It also gave a TGI (KM12 colon) greater than 25 µM, a GI50 (LOX IMVI melanoma) of 2.75 µM and a TGI (LOX IMVI melanoma) greater than 25 µM. For the same compound, the GI50 (M14 melanoma) was greater than 25 µM, the TGI (M14 melanoma) was greater than 25 µM and the GI50 (MALME-3M melanoma) was greater than 25 µM. It also gave a TGI (MALME-3M melanoma) greater than 25 µM, a GI50 (MCF7 breast) of 2.26 µM and a TGI (MCF7 breast) greater than 25 µM. The GI50 (MDA-MB-231 breast) was greater than 17.1 µM, the TGI (MDA-MB-231 breast) was greater than 25 µM and the GI50 (MDA-MB-435) was greater than 20 µM. The TGI (MDA-MB-435) was greater than 25 µM, the GI50 (MOLT-4 leukemia) was 9.75 µM and the TGI (MOLT-4 leukemia) was greater than 25 µM. It also gave a GI50 (NCI-H226 lung) of 0.57 µM, a TGI (NCI-H226 lung) greater than 17.7 µM and a GI50 (NCI-H23 lung) of 12.4 µM. For the same compound, the TGI (NCI-H23 lung) was greater than 25 µM, the GI50 (NCI-H460 lung) was 1.85 µM and the TGI (NCI-H460 lung) was greater than 25 µM. The GI50 (NCI-H522 lung) was greater than 15.9 µM, the TGI (NCI-H522 lung) was greater than 25 µM and the GI50 (NCI/ADR-RES ovarian) was greater than 25 µM. For the same compound, the TGI (NCI/ADR-RES ovarian) was greater than 25 µM, the GI50 (OVCAR-3 ovarian) was 9.06 µM and the TGI (OVCAR-3 ovarian) was greater than 25 µM. For the same compound, the GI50 (OVCAR-4 ovarian) was greater than 15.9 µM, the TGI (OVCAR-4 ovarian) was greater than 25 µM and the GI50 (OVCAR-5 ovarian) was 24.6 µM. For the same compound, the TGI (OVCAR-5 ovarian) was greater than 25 µM, the GI50 (OVCAR-8 ovarian) was 13.4 µM and the TGI (OVCAR-8 ovarian) was greater than 25 µM. For the same compound, the GI50 (PC-3 prostate) was greater than 25 µM, the TGI (PC-3 prostate) was greater than 25 µM and the GI50 (RPMI-8226 leukemia) was greater than 25 µM. The TGI (RPMI-8226 leukemia) was greater than 25 µM, the GI50 (RXF 393 renal) was 1.02 µM and the TGI (RXF 393 renal) was 9.59 µM. It also gave a GI50 (SF-268 CNS) of 3.01 µM, a TGI (SF-268 CNS) greater than 21.4 µM and a GI50 (SF-295 CNS) of 8.22 µM. For the same compound, the TGI (SF-295 CNS) was greater than 25 µM, the GI50 (SF-539 CNS) was 0.999 µM and the TGI (SF-539 CNS) was 12.5 µM. For the same compound, the GI50 (SK-MEL-2 melanoma) was greater than 25 µM, the TGI (SK-MEL-2 melanoma) was greater than 25 µM and the GI50 (SK-MEL-28 melanoma) was greater than 23.5 µM. It also gave a TGI (SK-MEL-28 melanoma) greater than 25 µM, a GI50 (SK-MEL-5 melanoma) of 17.6 µM and a TGI (SK-MEL-5 melanoma) greater than 25 µM. It also gave a GI50 (SK-OV-3 ovarian) greater than 25 µM, a TGI (SK-OV-3 ovarian) greater than 25 µM and a GI50 (SN12C renal) of 5.05 µM. It also gave a TGI (SN12C renal) greater than 25 µM, a GI50 (SNB-19 CNS) of 6.36 µM and a TGI (SNB-19 CNS) greater than 25 µM. The GI50 (SNB-75 CNS) was 0.732 µM, the TGI (SNB-75 CNS) was 6.24 µM and the GI50 (SR leukemia) was 1.16 µM. It also gave a TGI (SR leukemia) greater than 25 µM, a GI50 (SW-620 colon) of 1.55 µM and a TGI (SW-620 colon) greater than 25 µM. For the same compound, the GI50 (T-47D breast) was 8.38 µM, the TGI (T-47D breast) was greater than 23.6 µM and the GI50 (TK-10 renal) was 4.13 µM. For the same compound, the TGI (TK-10 renal) was greater than 25 µM, the GI50 (U251 CNS) was 1.1 µM and the TGI (U251 CNS) was greater than 25 µM. For the same compound, the GI50 (UACC-257 melanoma) was greater than 25 µM, the TGI (UACC-257 melanoma) was greater than 25 µM and the GI50 (UACC-62 melanoma) was 6.07 µM. The TGI (UACC-62 melanoma) was greater than 25 µM, the GI50 (UO-31 renal) was 5.63 µM and the TGI (UO-31 renal) was greater than 22.5 µM.
